Assay [1] relates to BRC1. As to the kind of experiment: qRT-PCR of strigolactone-responsive gene BRC1 in seedlings. In kind it is in vivo, Arabidopsis. Conditions: 10-day-old seedlings, 1 μM (+)-GR24 alone, 24 h. Background: Real-time PCR tracks product formation cycle by cycle.
Assay [2] concerns the target T1, AtD14-GFP fusion protein (Arabidopsis thaliana, UniProt Q9SQR3).
T1 sequence (Q9SQR3 1-267): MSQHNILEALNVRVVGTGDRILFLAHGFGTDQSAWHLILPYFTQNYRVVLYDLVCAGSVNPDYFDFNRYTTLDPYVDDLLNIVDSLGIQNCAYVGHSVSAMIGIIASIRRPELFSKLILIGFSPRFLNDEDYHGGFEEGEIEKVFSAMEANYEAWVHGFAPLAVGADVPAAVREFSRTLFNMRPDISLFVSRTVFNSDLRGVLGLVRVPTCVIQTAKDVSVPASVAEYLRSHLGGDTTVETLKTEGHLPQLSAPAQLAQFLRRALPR
Briefly: AtD14-GFP degradation in 35S::AtD14-GFP/atd14-1 seedlings. In kind it is in vivo. Conditions: 1 μM (+)-GR24 alone, 24 h.

Assay [3] concerns STH7. Briefly: qRT-PCR of strigolactone-responsive gene STH7 in seedlings. It counts as in vivo, Arabidopsis. The following applies: 10-day-old seedlings, 1 μM (+)-GR24 alone, 24 h.

As to (+)-GR24, in assay [1], the “expression of BRC1” value is on record as “increased”. The “GFP signal in hypocotyl (AtD14-GFP)” value in assay [2] is listed as “striking reduction”. Also, the “expression of STH7” value in assay [3] is listed as “increased”.

For the origin of these results see paper PMC5833010 (ACS Central Science, 2018).
